The values that follow come from patent US4771057A, “Reduced pyridyl derivatives with cardiovascular regulating properties” (University of Alberta, priority 1986, dated 1988).

The assay addresses guinea pig ileal longitudinal smooth muscle. Put plainly: Calcium channel antagonist testing: inhibition of muscarinic receptor-mediated Ca2+-dependent contraction (response to CD) of guinea pig ileal longitudinal smooth muscle. It counts as cell-based. The settings on record: for IC50: 50% inhibition of tonic contraction to CD 5×10^-7 M, compound added 10 min before CD, 37° C., pH 7.4, read-out: Calcium channel antagonist act., inhib. act. on contractile response to CD, ID50; for calcium channel antagonist activity, comparison to Nifedipine (TM): conclusion from Table 7. Here is the method:
Male albino guinea pigs (body weight 300-450 g) were sacrificed by decapitation. The intestine was removed above the ileo-caecal junction. Longitudinal smooth muscle segments of 2 cm length were mounted under a resting tension of 300-400 mg. […] The muscles were equilibrated for 1 h with a solution change every 15 min. Two successive control contractions were elicited at 15 min intervals with 5×10^-7 M cis-2-methyl- 4-dimethylaminomethyl-1,3-dioxolane methiodide (CD). The isometric contractions were recorded with a force displacement transducer (FT 03C) on a GRASS physiograph. The means of the two contractile responses was taken as the 100% value for the tonic (slow) component of the response. The muscle was washed with Hepes saline solution and was allowed to re-equilibrate. The calcium antagonist (test compound) was added ten min before the dose-response for CD was determined. The drug-induced inhibition of contraction was expressed as percent of control. The ID50 values were graphically determined from the concentration-response curves.

Where two headings read alike, the source gives them in different places.

Take “3,5-Dicyano-2,6-dimethyl-4-{3'-[N--methoxycarbonyl-1',2'-(1',6'-)dihydropyridyl]}-1,4-dihydropyridine [Compound D-48]”: the IC50 was found to be 34 µM.
Regarding “3-Isobutyl-5-methyl 2,6-dimethyl-4-{3'-[N--methoxycarbonyl-1',2'-(1',6'-)dihydropyridyl]}-1,4-dihydropyridine-3,5-dicarboxylate [Compound D-43]”, the IC50 was determined as 0.031 µM and the “calcium channel antagonist activity, comparison to Nifedipine (TM)” value (shortened to “calcium channel antagonist activity”) is recorded as “active calcium channel antagonists, being comparable to Nifedipine (TM)”.
Take “3-Isobutyl-5-methyl 2,6-dimethyl-4-{3'-[N--phenoxycarbonyl-1',2'-(1',6'-)dihydropyridyl]}-1,4-dihydropyridine-3,5-dicarboxylate [Compound D-44]”: the IC50 is 0.045 µM and the “calcium channel antagonist activity” value is listed as “active calcium channel antagonists, being comparable to Nifedipine (TM)”.
Take “3-Methyl 5-cyano-2,6-dimethyl-4-{3'-[N--methoxycarbonyl-1',2'-(1',6'-)dihydropyridyl]}-1,4-dihydropyridine-3-carboxylate [Compound D-46]”: the IC50 was 52 µM.
For `COC(=O)C1=C(C)NC(C)=C(C(=O)OC)C1c1ccccn1` [Compound D-1, 3,5-dimethyl 2,6-dimethyl-4-(2'-pyridyl)-1,4-dihydropyridine-3,5-dicarboxylate], the IC50 (Cavia porcellus) is 2.32 µM.
Turning to `COC(=O)C1=C(C)NC(C)=C(C(=O)OC(C)C)C1c1ccccn1` [Compound D-2, 3-Isopropyl-5-methyl 2,6-dimethyl-4-(2'-pyridyl)-1,4-dihydropyridine-3,5-dicarboxylate], the “calcium channel antagonist activity” value is recorded as “active calcium channel antagonists, being comparable to Nifedipine (TM)”. The IC50 (Cavia porcellus) was 0.0956 µM.
Regarding `COC(=O)C1=C(C)NC(C)=C(C(=O)OCC(C)C)C1c1ccccn1` [Compound D-3, 3-Isobutyl-5-methyl 2,6-dimethyl-4-(2'-pyridyl)-1,4-dihydropyridine-3,5-dicarboxylate], the “calcium channel antagonist activity” value is given as “active calcium channel antagonists, being comparable to Nifedipine (TM)”. For the same compound, where the note is “Cavia porcellus”, the IC50 came to 0.041 µM.
With `COC(=O)C1=C(C)NC(C)=C(C(=O)OCCN(C)C)C1c1ccccn1` [Compound D-4, 3-[2-(N,N--dimethylamino)ethyl]-5-methyl 2,6-dimethyl-4-(2'-pyridyl)-1,4-dihydropyridine-3,5-dicarboxylate], the IC50 (Cavia porcellus) came to 43.6 µM.
Same read-out and setting: under `COC(=O)C1=C(C)NC(C)=C(C(=O)OC)C1c1cccnc1` [Compound D-5, 3,5-Dimethyl 2,6-dimethyl-4-(3'-pyridyl)-1,4-dihydropyridine-3,5-dicarboxylate] stands 3.83 µM.
For the compound `COC(=O)C1=C(C)NC(C)=C(C(=O)OC(C)C)C1c1cccnc1` [Compound D-6, 3-Isopropyl-5-methyl 2,6-dimethyl-4-(3'-pyridyl)-1,4-dihydropyridine-3,5-dicarboxylate], the “calcium channel antagonist activity” value was “active calcium channel antagonists, being comparable to Nifedipine (TM)”. Further, the IC50 (Cavia porcellus) turned out to be 0.097 µM.
For `COC(=O)C1=C(C)NC(C)=C(C(=O)OCC(C)C)C1c1cccnc1` [Compound D-7, 3-Isobutyl-5-methyl 2,6-dimethyl-4-(3'-pyridyl)-1,4-dihydropyridine-3,5-dicarboxylate], the “calcium channel antagonist activity” value is on record as “active calcium channel antagonists, being comparable to Nifedipine (TM)”. Further, the IC50 (Cavia porcellus) was determined as 56 µM.
Consider `COC(=O)C1=C(C)NC(C)=C(C(=O)OCCN(C)C)C1c1cccnc1` [Compound D-8, 3-[2-(N,N--dimethylamino)ethyl]-5-methyl 2,6-dimethyl-4-(3'-pyridyl)-1,4-dihydropyridine-3,5-dicarboxylate], for which the IC50 (Cavia porcellus) amounted to 33.4 µM.
As to `COC(=O)C1=C(C)NC(C)=C(C(=O)OC)C1c1ccncc1` [Compound D-9, 3,5-Dimethyl 2,6-dimethyl-4-(4'-pyridyl)-1,4-dihydropyridine-3,5-dicarboxylate], the IC50 (Cavia porcellus) worked out at 5 µM.
